The source of these data is paper doi:10.1101/2021.03.02.433618v2 (biorxiv, 2021).

In assay [1] the target is T1, 3CLpro (Severe acute respiratory syndrome coronavirus 2, UniProt P0DTD1). Briefly: biochemical.
Assay [2] concerns the target T1, 3CLpro. Briefly: biochemical. This is another data set of the same source.

Read-outs that look alike come from different tables or passages of the source.

Broadly, the IC50 is the point on the concentration scale where inhibition reaches its midpoint. Read a high IC50 as weaker potency in that assay. The compound `O=c1cc(-c2ccc(O)c(O)c2)oc2cc(O)cc(O)c12` [luteolin] came in with an IC50 on 3CLpro [1] of 343 ± 77 µM. `CC(=O)c1c(O)c(C)c(O)c(Cc2c(O)c3c(c(C(=O)/C=C/c4ccccc4)c2O)OC(C)(C)C=C3)c1O` [rottlerin] displayed an IC50 against 3CLpro [2] of 37 µM.

At 3CLpro [1], `O=c1cc(-c2ccc(O)c(-c3c(O)cc(O)c4c(=O)cc(-c5ccc(O)cc5)oc34)c2)oc2cc(O)cc(O)c12` [amentoflavone] returned an IC50 of 143 ± 23 µM.
